Laboratory results: patent publication US20100130616A1, “SALT OF ALISKIREN WITH OROTIC ACID” (NOVARTIS AG, priority 2006, published 2010)
Structures can show the parent of a compound that is named as a salt.

Experiments:
Assay type in all cases: physicochemical
[1] = 1-Week Chemical Stability Test, total impurities by HPLC-UV 230 nm
From the text: (§1) The exceptional stability of the orotate salt of aliskiren towards water may also be shown in stability tests.

[2] = stability test towards water, water content after storage; conditions: open container and sealed ampoule, four weeks at 40° C. and 75% relative humidity
From the text: as §1

[3] = dynamic vapour sorption (DVS-1), isothermal water absorption or loss as a function of relative humidity; conditions: for Change in Mass (%) Desorption / Change in Mass (%) Sorption: 25° C., 2 hours after equilibration
Protocol: A clear characterisation of this property is achieved by means of isothermal measurements over predetermined time intervals and predetermined relative humidity using dynamic vapour sorption (DVS-1 from the company Surface Measurement Systems LTD, Marlow, Buckinghamshire, UK). Table 2 illustrates the mass change, i.e. the water absorption or loss as a function of relative humidity at 25° C. for a sample of the orotate salt of aliskiren and for a period of 2 hours after equilibration at each humidity level. The change in mass during the sorption and desorption cycle are shown. The measurement error of this sorption method based on thermogravimetry is about 0.1%.

Row | Total Impurities (HPLC-UV, 230 nm), % ([1]; 1 week, 50 C. sealed) [%] | Total Impurities (HPLC-UV, 230 nm), % ([1]; 1 week, 50 C./75% RH) [%] | Total Impurities (HPLC-UV, 230 nm), % ([1]; 1 week, 80 C. sealed) [%] | Total Impurities (HPLC-UV, 230 nm), % ([1]; 1 week, 80 C./75% RH) [%] | Total Impurities (HPLC-UV, 230 nm), % ([1]; Unstressed) [%] | water content [2] | moisture uptake ([3]; at 80% r.h.) [%] | hygroscopicity ([3]; from moisture uptake at 80% r.h.) | Change in Mass (%) Desorption ([3]; relative humidity 0%) [%] | Change in Mass (%) Sorption ([3]; relative humidity 0%) [%] | Change in Mass (%) Desorption ([3]; relative humidity 30%) [%] | Change in Mass (%) Sorption ([3]; relative humidity 30%) [%] | Change in Mass (%) Desorption ([3]; relative humidity 50%) [%] | Change in Mass (%) Sorption ([3]; relative humidity 50%) [%] | Change in Mass (%) Desorption ([3]; relative humidity 70%) [%] | Change in Mass (%) Sorption ([3]; relative humidity 70%) [%] | Change in Mass (%) Desorption ([3]; relative humidity 90%) [%] | Change in Mass (%) Sorption ([3]; relative humidity 90%) [%] | Change in Mass (%) Desorption ([3]; relative humidity 95%) [%] | Change in Mass (%) Sorption ([3]; relative humidity 95%) [%] | Structure (SMILES)
1 | 1.1 | 9.3 | 18.1 | 64.3 | 1.1 |  |  |  |  |  |  |  |  |  |  |  |  |  |  |  | COCCCOc1cc(C[C@@H](C[C@H](N)[C@@H](O)C[C@H](C(=O)NCC(C)(C)C(N)=O)C(C)C)C(C)C)ccc1OC [HemiFumarate, aliskiren hemifumarate, reference compound]
2 | 0.3 | 0.3 | 0.4 | 0.5 | 0.3 | remains constant | 0.4 | slightly-hygroscopic | 0.011 | 0.000 | 0.611 | 0.133 | 0.852 | 0.214 | 1.326 | 0.307 | 2.818 | 0.673 | 7.104 | 7.104 | COCCCOc1cc(CC(C[C@H](N)[C@@H](O)CC(C(=O)NCC(C)(C)C(N)=O)C(C)C)C(C)C)ccc1OC (stereo partly shown) [orotate salt of aliskiren]
